Test results as given in US20240302387A1, “HIGHLY FLUORINATED COMPOUNDS FOR 19F MRI-BASED THERMOMETRY” (Regents of the University of Minnesota, priority 2023, published 2024).
Entries after “also recorded” stand apart in the source; their conditions may differ. Where two headings read alike, the source gives them in different places. Blank lines part the entries; values can stand above or below the molecule they belong to.

Tests used:
Type in all cases: physicochemical
[1] = Phase at room temperature
Procedure: All seven organofluorine temperature sensors of Table 1a were synthesized under the optimized reaction conditions for enabling facile synthesis in the following General Scheme and Examples. Specifically, temperature sensors DD1-DD7 were prepared through an SNAr reaction. Compounds DD-2 and DD-4 required one extra oxidation of DD-1 and DD-3 to provide the respective sulfones. Yields of the SNAr reactions using thiol, HS—(CF2)7—CF3, were low […], while the yields with HS—CH2CH2CH2CF2CF3 fell in the range of […].

[2] = 19F NMR aqueous solubility limit measurement; conditions: for solubility: pH 6.9, aqueous with cosolvent or surfactant or cyclodextrin, kinetic from dmso stock
Procedure: ^19F NMR Aqueous Solubility Limit Measurements: Compound was dissolved in DMSO and then added to 10 mM pH=6.9 phosphate buffer/D2O (9:1 v/v) to make 5% DMSO stock in 500 μL phosphate buffer/D2O at concentration of 10/50/100/150/200/250 μM. Samples were measured with Bruker AVANCE III 500@ equipped with a 5 mm BBFO SmartProbe®. ^19F spectra were obtained at 471 MHz with dummy scans=4, acquisition time=0.57 s, delay time =1 s, […], and the number of scans=800 UV-Visible Spectra: Stock solutions of DD-1, DD-3, and DD-5 were prepared at 10 mM in DMSO and stored in the dark. A 10 mM phosphate buffer at pH=7 was prepared and stock solutions were diluted to 50 μM. UV-visible absorption spectra were obtained using a Horiba Aqualog®.

[3] = Quantitative 19F NMR fluorine mass balance after ozonation
Procedure: (§1) Quantitative ^19F NMR was conducted to determine if any of the fluorinated functional groups were susceptible to degradation. The environmental persistence and potential impact of these fluorinated temperature sensors will be a function of not only the persistence of the parent compound, but also that of any fluorinated reaction products. Photolysis and ozonation represent natural and engineered processes, respectively, that could degrade these compounds after their use and introduction into the water system.
(§2) ^19F NMR spectra were taken to quantify and partition degradation products from the parent compound signals for photolysis and ozonation (FIG. 7). […] The solutions analyzed contained 50 μM of DD-1 with 14 fluorine atoms, thus a total fluorine concentration of 700 μM, with 200 μM attributed to the aromatic fluorines (Ar—F; −137.04 ppm), 200 μM attributed to the CF2 (−121.34 ppm), and 300 μM attributed to the CF3 (−89.14 ppm) as shown in FIG. 7. […] Top: regional spectrum of untreated DD-1. Middle: regional spectrum of DD-1 degraded by solar simulator. Bottom: regional spectrum of DD-1 degraded by ozone. (left) Spectra of CF3 region. (middle) Spectra of CF2 region. (right) Spectra of Ar—F region. For photolysis and ozonation, 61% and 87% the parent Ar—F signal was lost respectively. A peak at ˜139.1 ppm appeared following ozonation and is hypothesized to be a hydroxylated aromatic ring product, which is a known reaction process for aromatics during ozonation (Vialaton, D., et al (1998) J Photochem Photobiol A Chem 119 (1):39-45). For the parent CF2, the signal decreased by 45% and 79%, but new CF2 products appeared upfield. Under both degradative conditions, new peaks appear in the near regions of the CF2, likely due to ring opening processes. […] For the parent CF3, the signal decreased by 38% and 69%, again with new CF3 products appearing upfield. An excess of 39 μM and 48 μM fluorine for the solar simulator and ozonation, respectively, was found within the CF3 region. These groups are hypothesized to be products produced by opening of the aromatic ring, which could be vinyl fluorines with oxygen and/or sulfur substituents.
Ozone-mediated Degradation: The 10 mM DMSO stock solution of DD-1 was used to make 100 mL of a 50 μM solution in the 10 mM pH=7 phosphate buffer. The solution was placed in an Erlenmeyer flask in an ice bath. Ozone (O3) was produced using ultra-high pure oxygen gas (99.99%) with a Pacific Ozone O3 generator and bubbled directly into the sample solution. O3 concentration was previously measured using UV-Vis spectroscopy (Beckman Coulter DU 530). The concentration of O3 (with an ε=3000 M^−1 cm^−1) was determined by direct absorbance at 258 nm. By using a 3:1 dilution, the absorbance obtained is equivalent to the O3 concentration in mM. After 30 minutes the O3 concentration in ultrapure water was 0.61 mM or 29.16 mg/L. Samples were taken over time for 300 minutes and parent compound degradation was monitored via HPLC.

[4] = Quantitative 19F NMR fluorine mass balance after photolysis (solar simulator)
Procedure: as §1, §2
Photolysis Experiments: Stock solutions were diluted to 10 μM in the phosphate buffer for kinetic experiments and 50 μM for ^19F NMR experiments. Solutions were placed in 10 mL quartz tubes sealed with cork stoppers with no contact to the solution. The solutions were photolyzed in (i) an Atlas Suntest CPS+® solar simulator with a 1500 W xenon lamp at an intensity of 765 W m-2 using a wavelength range of 290-800 nm at a 30° angle, and (ii) a 450 W medium pressure polychromatic mercury vapor lamp with a quartz immersion well with cooling water circulation, a Pyrex 280 nm cutoff filter (Ace Glass), and a merry-go-round sample holder. Samples were photolyzed until ˜60 to 80% degradation of the parent compound was achieved. For each compound an equivalent tube was prepared and wrapped in aluminum foil as a dark control. Experiments were performed in triplicate

[5] = Direct photolysis kinetics and quantum yield, solar simulator; conditions: for quantum yield of direct photolysis: 10 mM pH 7 phosphate buffer
[6] = Direct photolysis kinetics, mercury vapor lamp

SMILES: FC(F)(F)C(F)(F)C(F)(F)C(F)(F)N(C(F)(F)C(F)(F)C(F)(F)C(F)(F)F)C(F)(F)C(F)(F)C(F)(F)C(F)(F)F [CC-1, perfluorotributylamine, reference compound]
Phase [1]: liquid
Phase ([1]; listed as CC-1 PFTBA): solid at room temperature
water solubility (in words) [2]: limited water solubility

SMILES: Fc1c(F)c(-c2c(F)c(F)c(SCCC(F)(F)C(F)(F)C(F)(F)C(F)(F)C(F)(F)C(F)(F)C(F)(F)C(F)(F)F)c(F)c2F)c(F)c(F)c1SCCC(F)(F)C(F)(F)C(F)(F)C(F)(F)C(F)(F)C(F)(F)C(F)(F)C(F)(F)F [CC-2, (perfluoro-[1,1′-biphenyl]-4,4′-diyl)bis((3,3,4,4,5,5,6,6,7,7,8,8,9,9,10,10,10-heptadecafluorodecyl)sulfane), reference compound]
Phase [1]: solid

SMILES: Fc1c(F)c(SCCC(F)(F)C(F)(F)C(F)(F)C(F)(F)C(F)(F)C(F)(F)C(F)(F)C(F)(F)F)c(F)c(F)c1SCCC(F)(F)C(F)(F)C(F)(F)C(F)(F)C(F)(F)C(F)(F)C(F)(F)C(F)(F)F [CC-3, (perfluoro-1,4-phenylene)bis((3,3,4,4,5,5,6,6,7,7,8,8,9,9,10,1 0,10-heptadecafluorodecyl)sulfane), reference compound]
Phase [1]: solid

SMILES: Fc1c(F)c(SCCCC(F)(F)C(F)(F)F)c(F)c(F)c1SCCCC(F)(F)C(F)(F)F [DD-1, (perfluoro-1,4-phenylene)bis((4,4,5,5,5-pentafluoropentyl)sulfane)]
sum of fluorine concentrations for Ar—F, F− and ring opening products/vinyl F ([3]; O3, initial Ar—F 200 μM): 200 µM
Fluoride (F−) production ([3]; ozonation, 50 μM): 117 µM
excess fluorine found within the CF3 region ([3]; ozonation, 50 μM): 48 µM
parent Ar—F 19F NMR signal lost ([3]; ozonation, 50 μM): 87%
parent CF2 signal decrease ([3]; ozonation, 50 μM): 79%
parent CF3 signal decrease ([3]; ozonation, 50 μM): 69%
Fluoride (F−) production ([4]; photolysis, 50 μM): 79 µM
parent Ar—F 19F NMR signal lost ([4]; photolysis, 50 μM): 61%
parent CF2 signal decrease ([4]; photolysis, 50 μM): 45%
parent CF3 signal decrease ([4]; photolysis, 50 μM): 38%
sum of fluorine concentrations for Ar—F, F− and ring opening products/vinyl F ([4]; photolysis, initial Ar—F 200 μM): 198 µM
excess fluorine found within the CF3 region ([4]; solar simulator, 50 μM): 39 µM
Phase [1]: liquid phase at room temperature
solubility [2]: ≤ 200 µM
quantum yield of direct photolysis [5]: 0.0272 mol Ei^−1

Phase [1]: white solids; also recorded: solid
SMILES: O=S(=O)(CCCC(F)(F)C(F)(F)F)c1c(F)c(F)c(S(=O)(=O)CCCC(F)(F)C(F)(F)F)c(F)c1F [DD-2, 1,2,4,5-tetrafluoro-3,6-bis((4,4,5,5,5-pentafluoropentyl)sulfonyl) benzene]

SMILES: Fc1c(F)c(-c2c(F)c(F)c(SCCCC(F)(F)C(F)(F)F)c(F)c2F)c(F)c(F)c1SCCCC(F)(F)C(F)(F)F [DD-3, (perfluoro-[1,1′-biphenyl]-4,4′-diyl)bis((4,4,5,5,5-pentafluoropentyl)sulfane)]
Phase [1]: liquid phase at room temperature
solubility [2]: ≤ 200 µM
quantum yield of direct photolysis [5]: 0.0267 mol Ei^−1

SMILES: O=S(=O)(CCCC(F)(F)C(F)(F)F)c1c(F)c(F)c(-c2c(F)c(F)c(S(=O)(=O)CCCC(F)(F)C(F)(F)F)c(F)c2F)c(F)c1F [DD-4, 2,2′,3,3′,5,5′,6,6′-octafluoro-4,4′-bis((4,4,5,5,5-pentafluoropentyl)sulfonyl)-1,1′-biphenyl]
Phase [1]: solid

SMILES: Fc1c(F)c(Sc2c(F)c(F)c(SCCCC(F)(F)C(F)(F)F)c(F)c2F)c(F)c(F)c1SCCCC(F)(F)C(F)(F)F [DD-5, bis(2,3,5,6-tetrafluoro-4-((4,4,5,5,5-pentafluoropentyl)thio)phenyl)sulfane]
Phase [1]: solid
rank of photolysis rate constant [6]: fastest
rank of photolysis rate constant [5]: fastest
quantum yield of direct photolysis [5]: 0.0520 mol Ei^−1

SMILES: O=S(=O)(c1c(F)c(F)c(SCCCC(F)(F)C(F)(F)F)c(F)c1F)c1c(F)c(F)c(SCCCC(F)(F)C(F)(F)F)c(F)c1F [DD-6, (sulfonylbis(2,3,5,6-tetrafluoro-4,1-phenylene))bis((4,4,5,5,5-pentafluoropentyl)sulfane)]
Phase [1]: solid
